Assay results published in patent US20050255163A1, “Co-grinding process for the preparation of a ternary composition” (priority 2002, published 2005).
Converted amounts (≈) assume the structure as drawn.

Columns and labels:
Format in all cases: physicochemical
[1] = DSC enthalpy of fusion and percentage residual crystallinity of co-ground compositions; details: enthalpy of fusion of the active substance as such, before co-grinding
From the text: The compositions obtained by operating according to the examples reported below have been characterised by DSC and from the enthalpy of fusion the percentage residual crystallinity has been calculated.

[2] = Solubilisation kinetics under non sink conditions; details: thermodynamic from solid, in 2 minutes, read-out: concentration of DHEA reached (solubilisation kinetics, oversaturation)
Description: (§1) The dissolution speed of the DHEA from the ternary composition is markedly greater with respect to that of the DHEA as such, reaching 70% release after 15 minutes and 90% after 60 minutes, against the respective 9% and 20% for DHEA as such. Regarding the kinetics, in the ternary composition, the oversaturation reached by DHEA, which reaches a concentration of over 80 μg/ml in 2 minutes against around 50 μg/ml of DHEA as such, is evident.
(§2) Furthermore, the percentage of active substance released under sink conditions and the solubilisation kinetics under non sink conditions have been determined.

[3] = Percentage of active substance released under sink conditions (dissolution speed)
Description: as §1, with “In FIGS. 5 and 6 are reported respectively the dissolution speed curves under sink conditions (% age of active substance released against time) and the to solubilisation kinetics curves under non sink conditions (concentration of active substance against time) of a hydrophobic drug (DHEA)/hydrophilic carrier combination. The” for “The”
as §2

| SMILES | Active Substance Enthalpy [1] [J/g] | solubility kinetic at 2 min [2] [µg/mL] | percentage of active substance (DHEA) released ([3]; after 15 minutes) [%] | percentage of active substance (DHEA) released ([3]; after 60 minutes) [%] |
| --- | --- | --- | --- | --- |
| C[C@]12CC[C@H](O)CC1=CC[C@@H]1[C@@H]2CC[C@]2(C)C(=O)CC[C@@H]12 [DHEA, dehydroepiandrosterone] | 100 | ~50 (≈ 173 µM) | 9 | 20 |
| CC(=O)OCC(=O)[C@@]1(O)CC[C@H]2[C@@H]3CCC4=CC(=O)CC[C@]4(C)[C@H]3[C@@H](O)C[C@@]21C [HCA, hydrocortisone acetate] | 117.9 | – | – | – |
| CC(=O)N[C@@H](CS)C(=O)O [NAC, N-acetyl cystein] | 192.9 | – | – | – |
| Oc1ccc(C=Cc2cc(O)cc(O)c2)cc1 [Resveratrol, resveratrol] | 317.7 | – | – | – |
| Cc1cc(O)c(C2CC3CCC2(C)C3(C)C)cc1C (centres unmarked) [Xibornol, xibornol] | 92.8 | – | – | – |
